Assay results: patent US20260256872A1, “PEPTIDE FOR TREATING DEMYELINATING DISEASES AND USE THEREOF” (KINE SCIENCES Co., Ltd., priority 2023, published 2026)

What was measured:
[1] = test system: chronic inflammatory demyelinating polyneuropathy (CIDP) animal model; assay: Clinical score in CIDP animal model (EAN P0(180-199)); type: in vivo, Lewis rats
Procedure: Female Lewis rats (7 weeks old) were obtained and acclimatized for one week. Thereafter, solution A was prepared by dissolving peripheral myelin PO protein (180-199) in 0.9% saline at a concentration of […], and solution B was prepared by dissolving Mycobacterium tuberculosis in Freund's incomplete adjuvant at a concentration of […]. A sterile 50 ml tube was placed in an ice box, and solutions A and B were mixed at a ratio of 1:1. The mixture was then homogenized using a homogenizer for 15 minutes to prepare an emulsion. The prepared emulsion was loaded into a 1 ml syringe, the syringe needle was replaced with a 25G needle, and the syringe was stored in an ice box containing ice until use. The emulsion (200 μL) was subcutaneously (S.C.) injected into the tail of the Lewis rats to induce the disease. […]
In order to examine the progression of CIDP following administration of KINE-101, the severity of CIDP over time after administration of KINE-101 to the CIDP animal model was evaluated and measured using a clinical score.
Specifically, during administration of KINE-101 by the method described in Example <2-1>, the symptoms were evaluated on a scale of 0 to 5 according to the criteria shown in Table 3 below. […] The severity of CIDP was quantified by calculating the average value of the results evaluated for each individual.

[2] = test system: chronic inflammatory demyelinating polyneuropathy (CIDP) animal model; assay: Demyelination in peripheral nerve tissues (TEM), CIDP animal model; type: in vivo, Lewis rats; settings: KINE-101 50 mg/kg I.V.; hind limb peripheral nerve
Procedure: Female Lewis rats (7 weeks old) were obtained and acclimatized for one week. Thereafter, solution A was prepared by dissolving peripheral myelin PO protein (180-199) in 0.9% saline at a concentration of […], and solution B was prepared by dissolving Mycobacterium tuberculosis in Freund's incomplete adjuvant at a concentration of […]. A sterile 50 ml tube was placed in an ice box, and solutions A and B were mixed at a ratio of 1:1. The mixture was then homogenized using a homogenizer for 15 minutes to prepare an emulsion. The prepared emulsion was loaded into a 1 ml syringe, the syringe needle was replaced with a 25G needle, and the syringe was stored in an ice box containing ice until use. The emulsion (200 μL) was subcutaneously (S.C.) injected into the tail of the Lewis rats to induce the disease. […] From the day following disease induction, KINE-101 dissolved in DPBS was intravenously (I.V.) administered three times per week at doses of 1, 5, 25, and 50 mg/kg.
Tissue cross-sections were then observed using a transmission electron microscope (TEM) to evaluate the degree of myelin loss. In addition, comparisons were made with the normal group (Normal) and the CIDP-induced group (EAN PO (180-199)).

[3] = test system: CIDP animal model; assay: Clinical score in CIDP animal model (S-palmP0(180-199)), KINE-101 vs IVIg; type: in vivo, Lewis rats
[4] = Body weight change in CIDP animal model (S-palmP0(180-199)); type: in vivo, Lewis rats
Procedure: (§1) Specifically, male Lewis rats (7 weeks old) were obtained and acclimatized for one week. Thereafter, solution A was prepared by dissolving s-palm PO, in which palmitic acid is conjugated to cysteine at the 181st amino acid of peripheral myelin PO protein described in <Example 2>, in saline at a concentration of 2 mg/mL. Solution B was prepared by dissolving Mycobacterium tuberculosis in Freund's adjuvant at a concentration of 5 mg/mL. A sterile 25 mL tube was placed in an ice box, and solutions A and B were mixed at a ratio of 1:1 and homogenized for 15 minutes using a homogenizer to prepare an emulsion. The emulsion (200 μL) was then administered by subcutaneous injection at the base of the rat tail to induce the disease. […] The KINE-101 administration groups received KINE-101 dissolved in DPBS at doses of 6.25, 12.5, 25, and 37.5 mg/kg by intravenous injection (I.V.) three times per week for 15 days, starting the day after disease induction. The IVIg administration group received IVIg at a dose of 400 mg/kg once daily for 5 days starting the day after disease induction. The experiment was terminated on day 15 after disease induction.
Specifically, body weight was measured during administration of KINE-101 or IVIg by the method described in Example <3-1>, and the change in body weight was calculated relative to the body weight before disease induction (Day 0).

[5] = test system: CIDP animal model; assay: Nerve conduction studies (MNCV, CMAP, SNCV, SNAP) in CIDP animal model; type: in vivo, Lewis rats
Procedure: as §1
(§2) Specifically, KINE-101 or IVIg was administered by the method described in Example <3-1>, and after completion of the experiment, the animals were anesthetized with 1.5% isoflurane and examined. The fur from the distal region of the hind limb to the upper region was removed, and nerve conduction studies for measuring motor and sensory nerves were performed using a Nicolet VikingQuest device as the electrophysiological examination instrument. For the nerve conduction study, a needle electrode was placed on the motor nerve or sensory nerve, and a reference electrode was placed on the gastrocnemius muscle. The stimulating cathode was positioned in the middle of the posterior thigh near the recording electrode, and stimulation was applied at both distal and proximal sites. Motor nerve conduction velocity (MNCV) and compound muscle action potential (CMAP) of the motor nerve, as well as sensory nerve conduction velocity (SNCV) and sensory nerve action potential (SNAP) of the sensory nerve, were measured.

[6] = test system: acquired peripheral nerve injury animal model; assay: Nerve conduction studies in acquired peripheral nerve injury animal model; type: in vivo, C57BL/6 mice
Procedure: as §2
(§3) Specifically, a uniform nerve injury model can be obtained by damaging the nerve emerging from the spinal cord at a predetermined intensity for a certain period of time, and since both the intensity and duration can be controlled, it is possible to establish a nerve injury model that persists for a desired period. For the disease induction groups, the boundary region between the gluteal muscle and the femoral muscle of the mouse was incised to expose the sciatic nerve. The nerve was then grasped and injured for a predetermined period using a surgical tool (MacJam) at one of three intensities (stages 1, 2, or 3; stage 3 for 3 seconds was used as the reference), after which the incision was sutured to establish an acquired peripheral nerve injury animal model. From the day following disease induction, KINE-101 dissolved in DPBS was administered intravenously (I.V.) at doses of 10, 50, and 100 mg/kg three times per week for a total of four weeks.
Specifically, mice were anesthetized with 1.5% isoflurane at weeks 0, 3, and 6 after administration of KINE-101 according to the method described in Example <4-1>, and MNCV, CMAP, SNCV, and SNAP were measured by the same method described in Example <3-4> to determine whether motor nerves and sensory nerves were damaged.

[7] = test system: acquired peripheral nerve injury animal model; assay: Rotarod test in acquired peripheral nerve injury animal model; type: in vivo, C57BL/6 mice; settings: weeks 3 and 6; all KINE-101-treated groups (10, 50, 100 mg/kg); vs Injury Ctr
Excerpt: as §3, with “From the day following disease induction, KINE-101 dissolved in DPBS was administered intravenously (I.V.) at doses of 10, 50, and 100 mg/kg three times per week for a total of four weeks.” left out
Demyelinating diseases are known to be accompanied by symptoms such as muscle weakness and impaired balance. […] Specifically, the phenotype of the experimental animals was analyzed using rotarod, grip strength, and tail suspension tests. […] Using a rotarod apparatus (ROTA ROD, LE8205, Panlab), the time during which the animal remained on the rotating rod was measured for 2 minutes and 30 seconds at a fixed speed of 8 rpm. For each evaluation, three trials were conducted, and the maximum duration among the trials was analyzed.

[8] = test system: acquired peripheral nerve injury animal model; assay: Histopathological examination of nerve tissues (toluidine blue, TEM), acquired peripheral nerve injury animal model; type: in vivo, C57BL/6 mice; settings: for myelinated axons and unmyelinated fibers: vs acquired peripheral nerve injury group
Excerpt: as §3
Specifically, KINE-101 was administered to the acquired peripheral nerve injury animal model for four weeks according to the method described in Example <4-1>, and the experimental animals were sacrificed six weeks after the start of administration. Thereafter, peripheral nerve tissues of the hind limbs were isolated and fixed in a 4% paraformaldehyde solution containing 2.5% glutaraldehyde. After ethanol dehydration, the tissues were embedded in epoxy resin and semi-thin sections (1 μm) were prepared. The semi-thin sections were stained with toluidine blue for 5-10 seconds and observed under a light microscope. In addition, ultra-thin sections (65 nm) were prepared, and tissue cross-sections were observed using a transmission electron microscope (TEM) to examine abnormalities of myelin (demyelination, dysmyelination, and hypermyelination).

[9] = test system: Treg cells; assay: Treg cell proportion and activation in lymph nodes at nerve injury site (flow cytometry); type: in vivo, C57BL/6 mice
Excerpt: as §3
Specifically, KINE-101 was administered to the acquired peripheral nerve injury animal model for four weeks according to the method described in Example <4-1>, and the experimental animals were sacrificed six weeks after the start of administration. Thereafter, immune cells were isolated from the lymph nodes at the nerve injury site of the experimental animals. The isolated immune cells were subjected to fluorescent staining for CD4 and Foxp3 proteins, and the proportion of Treg cells among CD4 T cells was determined by flow cytometry. In addition, fluorescent staining for the CTLA4 protein, which is an activation marker of Treg cells, was performed, and the level of CTLA4 expression in Treg cells was compared by flow cytometric analysis to evaluate the degree of activation.

[10] = all KINE-101-treated groups (6.25-37.5 mg/kg I.V.), after day 15
[11] = all KINE-101-treated groups, IVIg 400 mg/kg
[12] = week 3, KINE-101 10 mg/kg I.V. three times per week for four weeks
[13] = week 3, KINE-101 50 mg/kg I.V. three times per week for four weeks
[14] = week 6, KINE-101 50 mg/kg I.V. three times per week for four weeks
[15] = weeks 3 and 6, KINE-101-treated groups (10, 50, 100 mg/kg)

## PSPPSPPSP [KINE-101, trimeric polymer prepared using a PSP fragment (PSP monomer)]
[1]; KINE-101 50 mg/kg I.V. three times per week
  clinical score: lowest clinical score
[1]; all KINE-101-treated groups (1, 5, 25, 50 mg/kg I.V. three times per week), vs CIDP-induced group
  clinical score (CIDP symptoms): alleviation of symptoms after day 15
[2]
  demyelination (degree of myelin loss, TEM): demyelination was suppressed similarly to that observed in the normal group
[3]; KINE-101 25 mg/kg I.V. three times per week
  clinical score: lowest clinical score
[3]; all KINE-101-treated groups (6.25 mg/kg to 37.5 mg/kg I.V. three times per week), day 15 after disease induction
  clinical score: lower clinical scores on day 15 after disease induction compared with the negative control group
[4]; KINE-101 12.5 mg/kg I.V.
  body weight improvement effect: most pronounced body weight improvement effect
[4]; KINE-101-treated groups (6.25-37.5 mg/kg I.V.)
  body weight gain vs negative control group: greater body weight gain compared with the negative control group
[4]; KINE-101-treated groups, day 15 after disease induction
  body weight vs before disease induction (Day 0): maintained significantly higher body weight than that before disease induction
[5]; KINE-101 12.5 mg/kg I.V.
  MNCV and CMAP: most pronounced effect
  SNCV and SNAP: most pronounced effect
[5]; [10]
  compound muscle action potential (CMAP): higher MNCV and CMAP values compared with the negative control group
  motor nerve conduction velocity (MNCV): higher MNCV and CMAP values compared with the negative control group
  sensory nerve action potential (SNAP): higher SNCV and SNAP values compared with the negative control group
  sensory nerve conduction velocity (SNCV): higher SNCV and SNAP values compared with the negative control group
[5]; [11]
  MNCV and CMAP vs IVIg-treated group: effects similar to or superior to those of the IVIg-treated group
  SNCV and SNAP vs IVIg-treated group: effects similar to those of the IVIg-treated group
[6]; [12]
  CMAP: 11.0±2.3 mV
  SNCV: 27.7±2.8 m/s
[6]; [13]
  MNCV: 46.7±7.4 m/s
  SNAP: 11.2±3.1 μV
  SNCV: 27.6±2.2 m/s
[6]; week 3, KINE-101 100 mg/kg I.V. three times per week for four weeks
  SNCV: 28.6±3.7 m/s
[6]; [14]
  CMAP: 32.9±4.0 mV
  MNCV: 63.9±7.6 m/s
  SNAP: 12.3±2.9 μV
  SNCV: 27.9±3.1 m/s
[6]; week 6, KINE-101 100 mg/kg I.V. three times per week for four weeks
  MNCV: 59.0±4.5 m/s
[6]; week 6, KINE-101-treated groups (10, 50, 100 mg/kg)
  MNCV: increased
[6]; [15]
  CMAP: increased compared with those in the acquired peripheral nerve injury group
  SNAP: increased compared with those in the acquired peripheral nerve injury group
[7]
  muscle strength and balance (rotarod): improved muscle strength and balance
[8]; KINE-101 50 mg/kg
  myelinated axons and unmyelinated fibers: marked increase in myelinated axons and a decrease in unmyelinated fibers
[8]; KINE-101 100 mg/kg
  myelinated axons and unmyelinated fibers: marked increase in myelinated axons and a decrease in unmyelinated fibers
[8]; KINE-101-treated groups (10, 50, 100 mg/kg), six weeks after start of administration, vs Injury Ctr
  myelination: improved myelination
[8]; KINE-101-treated groups, six weeks after start of administration
  number of large myelinated fibers and small unmyelinated fibers: an increase in the number of large myelinated fibers and a decrease in the number of small unmyelinated fibers
[9]; KINE-101 50 mg/kg
  CTLA4 expression in Treg cells (activation marker): increased to a statistically significant level
  proportion of Treg cells among CD4 T cells in lymph nodes at nerve injury site: increased to a statistically significant level
[9]; KINE-101-treated groups (10, 50, 100 mg/kg)
  CTLA4 expression in Treg cells (activation marker): increased
[9]; KINE-101-treated groups (10, 50, 100 mg/kg), six weeks after start of administration
  proportion of Treg cells among CD4 T cells in lymph nodes at nerve injury site: increased
